Numbering of substitutions follows the chain as printed.
Assays:
[1] = molecular target: T1, TWF2 (Twinfilin actin-binding protein; Flag-TWF2) (Homo sapiens, UniProt Q6IBS0); test: isothermal titration calorimetry; conditions: 25 °C; 20 mM HEPES pH 7.5, 300 mM NaCl, 2 mM MgCl2; 1 mM Sal E titrated into 100 µM TWF2; single-site model
T1 construct: Flag-tagged TWF2 overexpressed in 293F cells, purified with anti-Flag magnetic beads
T1 sequence (Q6IBS0 2-349): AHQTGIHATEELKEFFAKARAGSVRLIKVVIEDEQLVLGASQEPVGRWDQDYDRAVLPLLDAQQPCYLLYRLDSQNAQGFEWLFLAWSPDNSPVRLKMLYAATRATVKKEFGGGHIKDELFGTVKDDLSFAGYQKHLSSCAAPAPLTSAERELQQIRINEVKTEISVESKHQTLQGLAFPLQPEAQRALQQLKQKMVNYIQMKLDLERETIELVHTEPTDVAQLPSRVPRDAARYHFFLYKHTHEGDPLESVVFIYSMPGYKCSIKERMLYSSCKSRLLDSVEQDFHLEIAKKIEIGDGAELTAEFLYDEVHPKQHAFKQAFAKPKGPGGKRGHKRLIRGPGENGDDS
Description: isothermal titration calorimetry on TWF2 (Twinfilin actin-binding protein; Flag-TWF2) | direct binding affinity between Sal E and purified TWF2, with a dissociation constant (K d)

[2] = molecular target: T2, TWF2 (Twinfilin actin-binding protein; Flag-TWF2) (Homo sapiens, UniProt Q6IBS0, M99A); test: isothermal titration calorimetry; conditions: 25 °C; 20 mM HEPES pH 7.5, 300 mM NaCl, 2 mM MgCl2; 1 mM Sal E titrated into 100 µM TWF2; single-site model
T2 construct: Flag-tagged TWF2 overexpressed in 293F cells, purified with anti-Flag magnetic beads
T2 sequence (Q6IBS0 2-349 M99A): T1 sequence (Q6IBS0 2-349) with M98A

## O=C(/C=C/c1ccc(O)c(O)c1/C(=C\c1ccc(O)c(O)c1)C(=O)O[C@H](Cc1ccc(O)c(O)c1)C(=O)O)O[C@H](Cc1ccc(O)c(O)c1)C(=O)O [Salvianolic acid E]
[1]
  Kd: 16.7 µM
[2]
  loss of Sal E binding: showing loss of Sal E binding upon M99 mutation in TWF2

Reference: paper PMC12667553, “TWF2 Drives Tumor Progression and Sunitinib Resistance in Renal Cell Carcinoma through Hippo Signaling Suppression” (Advanced Science, 2025)
